Experimental data: PMC3032553, “Structural Basis for c-di-GMP-Mediated Inside-Out Signaling Controlling Periplasmic Proteolysis” (PLoS Biology, 2011)

What was measured:
LapD^dual [1] = molecular target: T1, LapD^dual (Pseudomonas fluorescens, UniProt Q3KK31, A602E/S229D); experiment: radioligand filter binding, one-site fit; conditions: read-out: Apparent K d
T1 construct: cytoplasmic S helix-GGDEF-EAL dual domain module, residues 220-648, lacks HAMP; purified; apo monomer, dimerizes with c-di-GMP
T1 sequence (Q3KK31 220-648 S229D/A602E): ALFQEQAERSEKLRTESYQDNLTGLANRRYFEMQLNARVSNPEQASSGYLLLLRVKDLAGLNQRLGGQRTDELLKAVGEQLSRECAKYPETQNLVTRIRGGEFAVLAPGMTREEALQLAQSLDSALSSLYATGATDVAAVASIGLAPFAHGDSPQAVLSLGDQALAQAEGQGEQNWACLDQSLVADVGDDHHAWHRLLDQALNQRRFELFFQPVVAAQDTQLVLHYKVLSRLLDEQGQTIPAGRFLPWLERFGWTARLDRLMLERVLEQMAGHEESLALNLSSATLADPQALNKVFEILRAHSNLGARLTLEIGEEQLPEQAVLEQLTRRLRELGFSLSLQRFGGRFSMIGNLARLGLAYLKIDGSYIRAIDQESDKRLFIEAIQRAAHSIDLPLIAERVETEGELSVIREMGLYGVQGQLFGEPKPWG
From the text: (§1) radioligand filter binding, one-site fit on LapD^dual

LapD^dual [2] = molecular target: T2, LapD^dual (Pseudomonas fluorescens, UniProt Q3KK31, E262A); experiment: radioligand filter binding, one-site fit; conditions: read-out: Apparent K d
T2 construct: cytoplasmic S helix-GGDEF-EAL dual domain module, residues 220-648, lacks HAMP; purified; apo monomer, dimerizes with c-di-GMP
T2 sequence (Q3KK31 220-648 E262A): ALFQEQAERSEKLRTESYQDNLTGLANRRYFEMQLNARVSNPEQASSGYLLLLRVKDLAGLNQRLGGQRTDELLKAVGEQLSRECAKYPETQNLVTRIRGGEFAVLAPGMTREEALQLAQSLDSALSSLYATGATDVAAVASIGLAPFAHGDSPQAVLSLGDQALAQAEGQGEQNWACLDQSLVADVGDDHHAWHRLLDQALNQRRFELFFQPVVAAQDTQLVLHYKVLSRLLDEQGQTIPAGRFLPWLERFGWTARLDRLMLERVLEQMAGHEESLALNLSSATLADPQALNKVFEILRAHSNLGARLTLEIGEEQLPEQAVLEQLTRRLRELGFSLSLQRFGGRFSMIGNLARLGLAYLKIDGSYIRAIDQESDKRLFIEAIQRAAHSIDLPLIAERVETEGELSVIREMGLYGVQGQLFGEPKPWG
From the text: as §1

LapD^dual [3] = molecular target: T3, LapD^dual (Pseudomonas fluorescens, UniProt Q3KK31, A602E); experiment: radioligand filter binding, one-site fit; conditions: read-out: Apparent K d
T3 construct: cytoplasmic S helix-GGDEF-EAL dual domain module, residues 220-648, lacks HAMP; purified; apo monomer, dimerizes with c-di-GMP
T3 sequence (Q3KK31 220-648 A602E): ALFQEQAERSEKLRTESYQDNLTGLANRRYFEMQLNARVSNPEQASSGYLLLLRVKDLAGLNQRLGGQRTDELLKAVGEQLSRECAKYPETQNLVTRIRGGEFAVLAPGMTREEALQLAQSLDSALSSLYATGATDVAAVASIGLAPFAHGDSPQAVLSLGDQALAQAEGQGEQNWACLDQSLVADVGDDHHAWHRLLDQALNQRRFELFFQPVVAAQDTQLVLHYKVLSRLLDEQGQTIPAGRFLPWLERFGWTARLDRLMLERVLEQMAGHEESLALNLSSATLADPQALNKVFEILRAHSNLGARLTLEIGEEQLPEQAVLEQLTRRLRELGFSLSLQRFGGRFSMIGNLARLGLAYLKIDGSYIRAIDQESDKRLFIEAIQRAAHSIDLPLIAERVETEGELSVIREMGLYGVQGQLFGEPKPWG
From the text: as §1

LapD^dual [4] = molecular target: T4, LapD^dual (Pseudomonas fluorescens, UniProt Q3KK31, S229D); experiment: radioligand filter binding, one-site fit; conditions: read-out: Apparent K d
T4 construct: cytoplasmic S helix-GGDEF-EAL dual domain module, residues 220-648, lacks HAMP; purified; apo monomer, dimerizes with c-di-GMP
T4 sequence (Q3KK31 220-648 S229D): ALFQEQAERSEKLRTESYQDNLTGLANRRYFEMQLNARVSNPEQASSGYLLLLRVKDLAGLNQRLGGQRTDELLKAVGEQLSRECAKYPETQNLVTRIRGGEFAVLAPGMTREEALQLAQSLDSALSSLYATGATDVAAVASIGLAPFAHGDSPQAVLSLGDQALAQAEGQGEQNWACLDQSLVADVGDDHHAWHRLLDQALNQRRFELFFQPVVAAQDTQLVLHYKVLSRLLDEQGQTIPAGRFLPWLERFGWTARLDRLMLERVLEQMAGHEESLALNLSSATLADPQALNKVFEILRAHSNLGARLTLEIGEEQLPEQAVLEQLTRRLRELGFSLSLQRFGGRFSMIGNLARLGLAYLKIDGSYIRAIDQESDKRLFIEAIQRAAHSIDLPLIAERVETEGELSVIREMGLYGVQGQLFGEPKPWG
From the text: as §1

LapD^dual [5] = molecular target: T5, LapD^dual (Pseudomonas fluorescens, UniProt Q3KK31); experiment: radioligand filter binding, one-site fit; conditions: read-out: Apparent K d
T5 construct: cytoplasmic S helix-GGDEF-EAL dual domain module, residues 220-648, lacks HAMP; purified; apo monomer, dimerizes with c-di-GMP
T5 sequence (Q3KK31 220-648): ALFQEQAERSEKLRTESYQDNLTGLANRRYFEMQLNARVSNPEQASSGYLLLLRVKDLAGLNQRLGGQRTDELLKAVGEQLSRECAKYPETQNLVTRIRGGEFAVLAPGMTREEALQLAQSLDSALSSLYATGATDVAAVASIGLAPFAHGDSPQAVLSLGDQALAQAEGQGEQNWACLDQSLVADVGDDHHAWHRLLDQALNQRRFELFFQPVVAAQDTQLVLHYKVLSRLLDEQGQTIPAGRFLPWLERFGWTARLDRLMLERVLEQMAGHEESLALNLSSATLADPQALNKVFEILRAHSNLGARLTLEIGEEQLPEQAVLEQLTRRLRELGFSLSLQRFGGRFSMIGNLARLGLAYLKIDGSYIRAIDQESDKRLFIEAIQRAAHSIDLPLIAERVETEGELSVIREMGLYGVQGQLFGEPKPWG
From the text: as §1

LapD^EAL = molecular target: T6, LapD^EAL (Pseudomonas fluorescens, UniProt Q3KK31, A602E); experiment: radioligand filter binding, one-site fit; conditions: read-out: Apparent K d
T6 construct: isolated degenerate EAL domain, residues 399-648; purified; dimer with c-di-GMP
T6 sequence (Q3KK31 399-648 A602E): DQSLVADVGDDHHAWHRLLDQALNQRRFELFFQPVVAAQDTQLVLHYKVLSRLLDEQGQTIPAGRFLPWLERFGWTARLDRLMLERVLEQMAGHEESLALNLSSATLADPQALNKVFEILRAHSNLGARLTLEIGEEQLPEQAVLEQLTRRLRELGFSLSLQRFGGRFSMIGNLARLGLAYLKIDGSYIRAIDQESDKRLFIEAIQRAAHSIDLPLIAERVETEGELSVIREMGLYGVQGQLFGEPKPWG
From the text: radioligand filter binding, one-site fit on LapD^EAL

His6-tagged LapG = molecular target: T7, His6-tagged LapG (P. fluorescens); experiment: pull-down; His6-LapG bound to NiNTA resin, untagged LapD output domain variants added, 1 h at 4°C; 25 mM Tris-HCl pH 8.4, 75 mM NaCl, 25 mM KCl, 40 mM imidazole; eluates on SDS-PAGE (Coomassie; SYPRO Ruby for quantification); conditions: both partners purified
T7 chain: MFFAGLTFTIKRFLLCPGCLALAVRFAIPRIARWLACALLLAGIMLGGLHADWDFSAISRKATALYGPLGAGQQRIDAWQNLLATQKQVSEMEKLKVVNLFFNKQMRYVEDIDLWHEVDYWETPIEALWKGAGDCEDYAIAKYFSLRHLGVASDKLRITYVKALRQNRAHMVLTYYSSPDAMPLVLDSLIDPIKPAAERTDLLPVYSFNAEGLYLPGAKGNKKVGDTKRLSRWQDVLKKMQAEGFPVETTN

[6] = molecular target: the molecule itself; experiment: crystal structure; LapD^output, selenomethionine-derivatized, 1.8 Å, two molecules per asymmetric unit
[7] = molecular target: the molecule itself; experiment: SEC-MALS; protein incubated with 500 µM c-di-GMP for 30 min at room temperature before SEC, no c-di-GMP in the mobile phase; 20-320 µM injected protein; 25 mM Tris-HCl pH 8.4, 250 mM NaCl; 25°C

Nc1nc2c(ncn2[C@@H]2O[C@@H]3CO[P@](=O)(O)O[C@H]4[C@@H](O)[C@H](n5cnc6c(=O)[nH]c(N)nc65)O[C@@H]4CO[P@](=O)(O)O[C@H]3[C@H]2O)c(=O)[nH]1 [c-di-GMP]
Kd (LapD^dual [1]): > 1000 µM | Kd (LapD^dual [2]): 15.3 ± 1.7 µM | Kd (LapD^dual [3]): > 1000 µM | Kd (LapD^dual [4]): 15.1 ± 1.8 µM | Kd (LapD^dual [5]): 27 ± 4.7 µM | Kd (LapD^EAL): 36.3 ± 5.4 µM

B1: LapD^output, wild-type (periplasmic output domain of LapD, residues 22-151) (domain or fragment, P. fluorescens Pf0-1, UniProt Q3KK31 22-151, looked up)
chain: SFMVSLESSRTQYVNQLRSHAQDAATALALSLTPNIDDPAMVELLVSSIFDSGYYSSIRVVDLKTDQTIVERNGIPAVTNVPDWFVKLIGLEPAGGDALVSRGWEQAARVEVVSHPMFALAKLWQSALGS
notes: LapD, P. fluorescens Pf0-1, residues 22-151 (periplasmic output domain); untagged in the pull-down; domain-swapped dimer in the crystal; The crystals were grown with selenomethionine-derivatized protein; the final model spans residues 23-150; also called periplasmic domain of LapD; source: produced following standard molecular biology and liquid chromatography techniques, purified (protocols in …)
stoichiometry N (His6-tagged LapG): 2 LapG molecules per output domain dimer | binding result [6]: binds

B2: LapD^EAL, wild-type (EAL domain of LapD, residues 399-648) (domain or fragment, P. fluorescens Pf0-1, UniProt Q3KK31 399-648, looked up)
chain: DQSLVADVGDDHHAWHRLLDQALNQRRFELFFQPVVAAQDTQLVLHYKVLSRLLDEQGQTIPAGRFLPWLERFGWTARLDRLMLERVLEQMAGHEESLALNLSSATLADPQALNKVFEILRAHSNLGARLTLEIGEEQLPEQAVLEQLTRRLRELGFSLSLQRFGGRFSMIGNLARLGLAYLKIDGSYIRAIDQESDKRLFIEAIQRAAHSIDLPLIAERVETEGELSVIREMGLYGVQGQLFGEPKPWG
notes: LapD, P. fluorescens Pf0-1, residues 399-648 (degenerate EAL domain); also called isolated EAL domain; LapD^EAL•c-di-GMP; source: produced following standard molecular biology and liquid chromatography techniques, purified (protocols in Text S1)
binding result [7]: binds
